Assay results published in EP1620056B1, “TUMOR CYTOTOXICITY INDUCED BY MODULATORS OF THE CXCR4 RECEPTOR” (Morehouse School of Medicine, priority 2003, dated 2004).

How the values were obtained:
[1] = test system: epithelial tumor cell lines; assay: Apoptotic assay of Gp 120 and Nef peptides; type: cell-based, human; details: peptide sequences within Nef or Gp 120
Text: The nef protein was expressed and purified in the inventors' laboratory. overlapping 20 mer peptides encompassing the entire nef protein and overlapping 15 mer peptides encompassing the entire Gp 120 protein were obtained from the NIH AIDS Research & Reference Reagent Program (McKesson HBC Bio-Services, MD) Other specific peptides designed from within Gp 120 or nef were obtained from SigmaGenosys.
Apoptosis generates DNA free ends which can be labeled in situ using terminal deoxynucleotidyl-transferase (TdT), incorporating an exogenously added labeled nucleotide to the DNA strand. This label can then be visualized directly by fluorescence or indirectly using anti-FITC-peroxidase, and a colorimetric assay. Cells on coverslips were washed with PBS, and fixed for 30 minutes at RT with 4% paraformaldehyde, in PBS, pH 7.4. They were then washed with PBS, and permeabilized with 0.1% Triton X-100 for 10 minutes at room temperature (RT). The slides were rinsed twice with PBS, and air dried for 2 minutes. The manufacturer's procedure for TUNEL staining the slides was followed (manufacturer's procedure for the In Situ Cell Death Detection Kit, AP; Boehringer Mannheim, Indianapolis, IN). Total cell counts were determined by counterstaining fixed cultures with 20 µg/ml of Hoechst 33258. […]

[2] = test system: MDA-MB231, MCF7, and DU4475; assay: Agarose gel electrophoresis / DNA fragmentation (DNA laddering) in CXCR4-expressing lines; type: cell-based, human; details: positive control, 10 mM (6.35 mg/ml), 24 hours, compared to untreated cultures
Protocol: Untreated or treated cells were collected, and DNA was harvested from normal or cancer cell cultures. Briefly, the cells were washed with PBS, pelleted at 1600 g for 20 minutes at 4°C, and resuspended in 50 mM Tris-HCl, pH 7.5, 20 mM EDTA buffer at about 10^7 cells/ml. The cells were then treated 2x with lysis buffer: 1.0% NP-40 (Sigma, St. Louis, MO) in the same Tris/EDTA buffer at RT for 2 minutes followed by centrifugation at 1600 g for 5 minutes. After the last spin, SDS was added to the supernatant to 1% final concentration, RNase A (Sigma, St. Louis, MO) was added to 5 mg/ml final concentration, and the solution incubated at 56°C for 2 hours. Subsequently, protease K (Promega, Madison, WI) was added to the solution to 2.5 µg/ml and incubated at 37°C for 2.5 hr. Ammonium acetate was added to 4 M final concentration, 0.7 volumes of isopropanol was added, the solution was put at -20°C overnight followed by centrifugation at 14,000 rpm for 30 minutes. The pellets were washed twice with 70% ethanol, dried and resuspended in 10 mM Tris-HCl, pH 7.5, 1 mM EDTA. DNA samples, 18 µg per condition, were prepared in neutral loading buffer to a final concentration of 0.02% bromophenol blue, 5% glycerol, 0.1% SDS, and 50 µg of ethidium bromide, loaded onto a neutral agarose gel (1.7%), and run at 50V for 2.5 hours. […]

Row | Substance | apoptotic properties of the sequence [1] | DNA laddering [2]
1 | ALAETCONAWA | lost all apoptotic effects | –
2 | ceramide | – | DNA laddering characteristic of apoptotic cells was observed
